Results taken from patent US6737383B1, “Herbicidal oxadiazolidines” (priority 1999, dated 2004).

How the values were obtained:
[1] = tested on: duck salad; assay: Test B flood test duck salad; format: in vivo, Heteranthera limosa
Outline: (§1)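 Read-out is a visual response score from 0 (no effect) to 10 (complete control), assigned by comparison with untreated controls. Treatment was applied at the 2-leaf stage, and plants stayed in the greenhouse for twelve to sixteen days before scoring.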

[2] = tested on: sugar beet; assay: Test B pre/postemergence sugar beet; format: in vivo, Beta vulgaris
Outline: (§2)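 Herbicidal effect was estimated by eye on a ten-point control scale after plants spent twelve to sixteen days in a greenhouse following soil or foliar treatment. Foliar sprays targeted plants at one to four leaves; all doses were formulated in a non-phytotoxic solvent with surfactant.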

[3] = tested on: pigweed; assay: Test B pre/postemergence pigweed; format: in vivo, Amaranthus retroflexus
Outline: as §2

[4] = tested on: rice; assay: Test B flood test rice; format: in vivo, Oryza sativa
Outline: as §1

[5] = tested on: wheat; assay: Test B pre/postemergence wheat; format: in vivo, Triticum aestivum
Outline: as §2

[6] = tested on: smallflower flatsedge; assay: Test B flood test smallflower flatsedge; format: in vivo, Cyperus difformis
Outline: as §1

[7] = tested on: surinam grass; assay: Test B pre/postemergence surinam grass; format: in vivo, Brachiaria decumbens
Outline: as §2

[8] = tested on: bamyardgrass; assay: Test B flood test barnyardgrass; format: in vivo, Echinochloa crus-galli
Outline: as §1

[9] = tested on: giant foxtail; assay: Test B pre/postemergence giant foxtail; format: in vivo, Setaria faberii
Outline: as §2

[10] = tested on: crabgrass; assay: Test B pre/postemergence crabgrass; format: in vivo, Digitaria sanguinalis
Outline: as §2

[11] = tested on: cocklebur; assay: Test B pre/postemergence cocklebur; format: in vivo, Xanthium strumarium
Outline: as §2

[12] = tested on: rape; assay: Test B pre/postemergence rape; format: in vivo, Brassica napus
Outline: as §2

[13] = tested on: purple nutsedge; assay: Test B pre/postemergence purple nutsedge; format: in vivo, Cyperus rotundus
Outline: as §2

[14] = tested on: wild oat; assay: Test B pre/postemergence wild oat; format: in vivo, Avena fatua
Outline: as §2

[15] = tested on: corn; assay: Test B pre/postemergence corn; format: in vivo, Zea mays
Outline: as §2

[16] = tested on: morningglory; assay: Test B pre/postemergence morningglory; format: in vivo, Ipomoea hederacea
Outline: as §2

[17] = Postemergence block (flood test species), Rate 250 g/ha, scale 0 to 10
[18] = Postemergence section (flood test species), Rate 500 g/ha, scale of 0 to 10 where 0 is no effect and 10 is complete control
[19] = Rate 62 g/ha, Postemergence (flood test species), scale of 0 to 10 where 0 is no effect and 10 is complete control
[20] = Rate 125 g/ha, Postemergence section (flood test species), scale 0 to 10, 0 is no effect, 10 is complete control
[21] = Postemergence, Rate 250 g/ha, scale 0 to 10
[22] = Postemergence, Rate 500 g/ha, scale of 0 to 10 where 0 is no effect and 10 is complete control
[23] = Preemergence, Rate 62 g/ha, scale 0 to 10 (0 no effect, 10 complete control)
[24] = Preemergence, Rate 125 g/ha, scale of 0 to 10 where 0 is no effect and 10 is complete control
[25] = Preemergence, Rate 250 g/ha, scale 0 to 10, 0 is no effect, 10 is complete control
[26] = Preemergence, Rate 500 g/ha, scale 0 to 10, 0 is no effect, 10 is complete control
[27] = Rate 125 g/ha, Postemergence, scale 0 to 10, 0 is no effect, 10 is complete control
[28] = Rate 62 g/ha, Postemergence, scale of 0 to 10 where 0 is no effect and 10 is complete control

CC(C)N(C(=O)n1oc(=O)n(C[Si](C)(C)c2ccccc2)c1=O)c1ccc(Cl)cc1 [Compound 424]
Ducksalad plant response rating [1, 17]: 0
Ducksalad plant response rating [1, 18]: 0
Ducksalad plant response rating [1, 19]: 0
Ducksalad plant response rating [1, 20]: 0
Sugarbeets plant response rating [2, 21]: 0
Sugarbeets plant response rating [2, 22]: 0
Plant response rating, Sugarbeets [2, 23]: 0
Plant response rating, Sugarbeets [2, 24]: 0
Sugarbeets plant response rating [2, 25]: 0
Sugarbeets plant response rating [2, 26]: 0
Sugarbeets plant response rating [2, 27]: 0
Redroot pigweed plant response rating [3, 21]: 0
Redroot pigweed plant response rating [3, 22]: 0
Plant response rating, Redroot pigweed [3, 23]: 0
Plant response rating, Redroot pigweed [3, 24]: 0
Redroot pigweed plant response rating [3, 25]: 0
Redroot pigweed plant response rating [3, 26]: 0
Redroot pigweed plant response rating [3, 27]: 0
Rice plant response rating [4, 17]: 0
Rice plant response rating [4, 18]: 0
Rice plant response rating [4, 20]: 0
Wheat plant response rating [5, 21]: 0
Wheat plant response rating [5, 22]: 0
Plant response rating, Wheat [5, 23]: 0
Plant response rating, Wheat [5, 24]: 0
Wheat plant response rating [5, 25]: 0
Wheat plant response rating [5, 26]: 0
Wheat plant response rating [5, 27]: 0
S. Flatsedge plant response rating [6, 17]: 0
S. Flatsedge plant response rating [6, 18]: 0
S. Flatsedge plant response rating [6, 20]: 0
B. signalgrass plant response rating ([7]; Postemergence, Rate 250 g/ha, scale 0 to 10, 0 no effect, 10 complete control): 0
B. signalgrass plant response rating [7, 22]: 0
Plant response rating, B. signalgrass [7, 23]: 0
Plant response rating, B. signalgrass [7, 24]: 0
B. signalgrass plant response rating ([7]; Preemergence, Rate 250 g/ha, scale of 0 to 10 where 0 is no effect and 10 is complete control): 0
B. signalgrass plant response rating ([7]; Preemergence, Rate 500 g/ha, scale of 0 to 10 where 0 is no effect and 10 is complete control): 0
B. signalgrass plant response rating [7, 28]: 0
B. signalgrass plant response rating [7, 27]: 0
Barnyardgrass plant response rating [8, 17]: 0
Barnyardgrass plant response rating [8, 18]: 0
Barnyardgrass plant response rating [8, 19]: 0
Barnyardgrass plant response rating [8, 20]: 0
Giant foxtail plant response rating [9, 21]: 0
Giant foxtail plant response rating [9, 22]: 0
Plant response rating, Giant foxtail [9, 23]: 0
Plant response rating, Giant foxtail [9, 24]: 0
Giant foxtail plant response rating [9, 25]: 0
Giant foxtail plant response rating [9, 26]: 0
Giant foxtail plant response rating [9, 28]: 0
Giant foxtail plant response rating [9, 27]: 0
Crabgrass plant response rating [10, 21]: 0
Crabgrass plant response rating [10, 22]: 0
Plant response rating, Crabgrass [10, 23]: 0
Plant response rating, Crabgrass [10, 24]: 0
Crabgrass plant response rating [10, 25]: 0
Crabgrass plant response rating [10, 26]: 0
Crabgrass plant response rating [10, 28]: 0
Crabgrass plant response rating [10, 27]: 0
Cocklebur plant response rating [11, 21]: 0
Cocklebur plant response rating [11, 22]: 0
Plant response rating, Cocklebur [11, 23]: 0
Plant response rating, Cocklebur [11, 24]: 0
Cocklebur plant response rating [11, 25]: 0
Cocklebur plant response rating [11, 26]: 0
Cocklebur plant response rating [11, 28]: 0
Cocklebur plant response rating [11, 27]: 0
Rape plant response rating [12, 21]: 0
Rape plant response rating [12, 22]: 0
Plant response rating, Rape [12, 23]: 0
Plant response rating, Rape [12, 24]: 0
Rape plant response rating [12, 25]: 0
Rape plant response rating [12, 26]: 0
Rape plant response rating [12, 27]: 0
Nutsedge plant response rating [13, 21]: 0
Nutsedge plant response rating [13, 22]: 0
Plant response rating, Nutsedge [13, 23]: 0
Plant response rating, Nutsedge [13, 24]: 0
Nutsedge plant response rating [13, 25]: 0
Nutsedge plant response rating [13, 26]: 0
Nutsedge plant response rating [13, 27]: 0
Wild oats plant response rating [14, 21]: 0
Wild oats plant response rating [14, 22]: 0
Plant response rating, Wild oats [14, 23]: 0
Plant response rating, Wild oats [14, 24]: 0
Wild oats plant response rating [14, 25]: 0
Wild oats plant response rating [14, 26]: 0
Wild oats plant response rating [14, 27]: 0
Corn plant response rating [15, 21]: 0
Corn plant response rating [15, 22]: 0
Plant response rating, Corn [15, 23]: 0
Plant response rating, Corn [15, 24]: 0
Corn plant response rating [15, 25]: 0
Corn plant response rating [15, 26]: 0
Corn plant response rating [15, 28]: 0
Corn plant response rating [15, 27]: 0
Morningglory plant response rating [16, 21]: 0
Morningglory plant response rating [16, 22]: 1
Plant response rating, Morningglory [16, 23]: 0
Plant response rating, Morningglory [16, 24]: 0
Morningglory plant response rating [16, 25]: 0
Morningglory plant response rating [16, 26]: 0
Morningglory plant response rating [16, 27]: 0
